Measurements as given in patent US12691143B2, “Method for treating cancer” (priority 2020, dated 2026).
Entries after “also recorded” stand apart in the source; their conditions may differ.

Experiments:
[1] = test system: KE1 bladder cancer cell line (ERCC2-mutated derivative of KU19-19, NER-deficient); test: In vitro drug sensitivity assay (CellTiter-Glo); type: cell-based; details: NER-deficient KE1, compared with isogenic KU19-19; 48 to 72 hours
Excerpt: Bladder cancer cell lines were purchased from ATCC. The KE1 bladder cancer cell line is a derivative of KU19-19 in which an ERCC2 T484 mutation has been introduced by CRISPR/Cas9 gene editing as previously described (6). The MDA-MB-468 breast cancer cell line and its ERCC4-complemented derivative have been previously described (35). Small interfering RNAs (siRNAs) targeting specific NER genes as well as a non-targeting siRNA (siNTC) were purchased from Integrated DNA Technologies Inc. (Coralville, IA, USA; see Table 9 for sequences). Cells were seeded in 6-well plates and grown to 50% confluency. A transfection mixture containing siRNA diluted to a final concentration of 30 nM in Opti-MEM media containing Lipofectamine 3000 (Life Technologies; Carlsbad, CA) was then added to cells. After 48 hours, cells were trypsinized and re-aliquoted to separate wells and transfected with 15 nM siRNA for 24 hours immediately prior to viability assays performed as described below. […]
Cells were seeded in either 96-well (5,000 cells/well) or 24-well (20,000 cells/well) plates. […] Plates were scanned using a luminescence microplate reader (BioTek). […]

[2] = test system: KE1 cells (NER-deficient); test: Immunoblotting after irofulven treatment; type: cell-based
Description: Cells were lysed with ice-cold RIPA buffer supplemented with protease and phosphatase inhibitors (Roche). Samples were then sonicated and protein concentrations were determined using the Bradford assay. Sample buffer (Bio-Rad) was added and samples were then denatured at 90° C. for 10 mins. Samples were then loaded in NuPAGE™ protein gels (Thermo Fisher Scientific) and run at 90V for 2-3 hours. The gels were then transferred to nitrocellulose membranes at 30V overnight. Membranes were blocked for 30 mins in 5% milk in TBS buffer. Sections of the membrane corresponding to the appropriate molecular weights were stained overnight in primary antibodies prepared in 1% milk in TBST: XPF (1:700, clone D3G8C rabbit mAB, Cell Signaling); cleaved caspase 3 (1:1000, clone D175, rabbit mAB, Cell Signaling); total and cleaved PARP (1:1000, rabbit mAB, Cell Signaling); phospho-H2AX Ser139 (1:1000, clone JBW301 mouse mAB, Millipore); β-tubulin (1:1000, mouse mAB, Santa Cruz Technologies); Rpb1 CTD (1:1000, clone 4H8 Mouse mAb, Cell Signaling). A Licor Odyssey Infrared Imaging System was used for signal detection using IRDYE-conjugated secondary antibodies (LI-COR Biosciences).
Cells were lysed with ice-cold RIPA buffer supplemented with protease and phosphatase inhibitors (Roche). Samples were then sonicated and protein concentrations were determined using the Bradford assay. […]

[3] = test system: KE1 xenografts (NER-deficient); test: Xenograft study; type: in vivo, mice
Description: (§1) Six week old female athymic nude mice, NU/J (Stock No: 002019) were purchased from Jackson Laboratory (Bar Harbor, ME) and housed at the Dana-Farber Cancer Institute Animal Resources Facility. All animal experiments were performed in accordance with an IACUC-approved protocol. At 7-10 weeks of age, mice were anesthetized with isoflurane and subcutaneously injected on the left flank with 3 million KE1 or 1 million KU19-19 cells mixed 1:1 with Matrigel (BD Biosciences; Mississauga, ON) in PBS. Tumor size was measured with a digital caliper twice weekly and calculated using the formula: (L×W^2)×½. Drug treatments were administered when the average tumor volume reached a minimum of 100 mm^3. Irofulven was prepared in PBS to a stock concentration of 200 μg/ml and was delivered intraperitoneally (IP) twice weekly at doses of 250 μg/kg, 500 μg/kg or 1 mg/kg for a total of 5 injections or until the tumor reached a pre-specified protocol endpoint. Control mice were injected with PBS alone. At the end of the experiment, mice were sacrificed and tumors were excised for tumor weight measurements and imaging.
(§2) Six week old female athymic nude mice, NU/J (Stock No: 002019) were purchased from Jackson Laboratory (Bar Harbor, ME) and housed at the Dana-Farber Cancer Institute Animal Resources Facility. All animal experiments were performed in accordance with an IACUC-approved protocol. At 7-10 weeks of age, mice were anesthetized with isoflurane and subcutaneously injected on the left flank with 3 million KE1 or 1 million KU19-19 cells mixed 1:1 with Matrigel (BD Biosciences; Mississauga, ON) in PBS. Tumor size was measured with a digital caliper twice weekly and calculated using the formula:
(§3) [formula] Drug treatments were administered when the average tumor volume reached a minimum of 100 mm^3. Irofulven was prepared in PBS to a stock concentration of 200 μg/ml and was delivered intraperitoneally (IP) twice weekly at doses of 250 μg/kg, 500 μg/kg or 1 mg/kg for a total of 5 injections or until the tumor reached a pre-specified protocol endpoint. Control mice were injected with PBS alone. At the end of the experiment, mice were sacrificed and tumors were excised for tumor weight measurements and imaging.

[4] = test system: KU19-19 xenografts (NER-proficient); test: Xenograft study; type: in vivo, mice; details: 1 mg/kg irofulven
Description: as §1, §2, §3

SMILES: CC1=C(CO)C2=C(C)C3(CC3)[C@@](C)(O)C(=O)C2=C1 [irofulven]
- drug sensitivity (survival as percentage of drug-free media) [1]: significantly more sensitive; also recorded: highly sensitive; also recorded: increased sensitivity
- RNA polymerase level (immunoblot) ([2]; following irofulven treatment, KE1): time-dependent loss
- phospho-H2AX (γH2AX), cleaved PARP and cleaved caspase-3 (immunoblot) ([2]; irofulven-treated NER-deficient cells): accumulation
- tumor dose response ([3]; 250 μg/kg, 500 μg/kg or 1 mg/kg IP twice weekly): strong irofulven dose response
- tumor response (tumor volume) ([3]; 1 mg/kg IP twice weekly, total of five doses): near complete tumor regression
- xenograft weights ([3]; irofulven-treated vs untreated mice): significantly lower
- tumor response [4]: no response; also recorded: did not show response
